# Test results as given in patent US20080045535A1, “Prokineticin 2 receptor antagonists” (priority 2005, published 2008).
# Target: T1, HEK 293 GPR73 (prokineticin 1 receptor) expressing cells (Homo sapiens, UniProt Q8TCW9)
# T1 construct: expressed in transfected cells; host or cells: HEK 293
# Assay: PK1 functional assay: screening for PK1 antagonists on the FLIPR (calcium fluorescence)
# Format: cell-based
# Details: HEK 293 GPR73 cells
# Method in brief: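 HEK 293 cells expressing GPR73 were loaded with Calcium Plus Dye for 30 min at 37 C, then read for calcium fluorescence on FLIPR. Values were baseline-subtracted and expressed as percent of maximal control; percent inhibition is 100 minus that, and IC50 was fitted from it.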
# T1 sequence (Q8TCW9 whole entry): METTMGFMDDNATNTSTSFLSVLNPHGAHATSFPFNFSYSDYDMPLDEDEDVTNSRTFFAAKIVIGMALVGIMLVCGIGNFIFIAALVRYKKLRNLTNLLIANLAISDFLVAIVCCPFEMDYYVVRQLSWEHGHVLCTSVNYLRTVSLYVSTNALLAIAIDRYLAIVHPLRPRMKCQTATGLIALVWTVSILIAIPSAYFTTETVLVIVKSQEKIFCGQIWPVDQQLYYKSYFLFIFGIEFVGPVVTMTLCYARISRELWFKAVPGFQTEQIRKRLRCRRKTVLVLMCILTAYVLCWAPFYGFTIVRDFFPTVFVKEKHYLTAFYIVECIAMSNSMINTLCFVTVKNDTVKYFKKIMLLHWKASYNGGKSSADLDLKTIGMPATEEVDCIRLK
substance,measurement,setting,value
"N-{2-[5-Benzyl-1-(4-methoxy-benzyl)-4,6-dioxo-1,4,5,6-tetrahydro-[1,3,5]triazin-2-ylamino]-ethyl}-oxyguanidine [Cpd 27]",IC50,"PK1 ligand at EC50, multiple values = repeat tests, read-out: Ca^2+ Mobilization IC50",1.97 µM
same,Ca^2+ Mobilization % Inh @10 μM,"compound at 10 μM, multiple values = repeat tests",55%
